Assay results from publication PMC8896928, “Preparation, Characterization, and Preliminary Imaging Study of [^188Re]Re-Ibandronate as a Novel Theranostic Radiopharmaceutical for Bone Metastasis” (Contrast Media & Molecular Imaging, 2022).
Where two headings read alike, the source gives them in different places.

Tests used:
[1] = tested on: fresh human plasma; conditions: 37°C, 2 h
Description: The results are expressed as mean ± standard deviation ( χ¯ ± s).

[2] = Biodistribution in normal mice; format: in vivo, Kunming mice
Method: Twenty Kunming mice (originated from Swiss albino mice and introduced into Kunming, China.) were randomly divided into five groups (equal number of males and females). Each group was injected with 3.7 MBq [^188Re]Re-IBA. […] The blood and important tissue and organ samples were collected to measure the radioactivity count by γ counter. Following the time attenuation correction, the percentage injection dose rate per gram of tissue (%ID/g) was calculated at each time point. The result is expressed as mean ± standard deviation ( χ¯ ± s). The in vivo distribution of [^188Re]ReO4^− was studied using the aforementioned method.

[3] = tested on: nude mice of bone metastasis model (PC-3, MDA-MB-231, left tibia); conditions: for ROI ratio of model bone/contralateral bone (mean): bone imaging
Method: The nude mice of the bone metastasis model were established by tibial bone marrow injection. The specific methods were as follows: 25 μL of prostate cancer PC-3 and breast cancer MDA-MB-231 cell culture medium were injected into the left tibial bone marrow cavity of healthy male and female nude mice, respectively. At approximately 3-4 weeks after inoculation, they were scanned by microcomputed tomography (CT, SIEMENS InveonTM, Munich, Germany) to determine the condition of the model. […] Bone metastases were initially evaluated by CT and confirmed by pathology after the completion of related studies.
The nude mice were injected with [^18F]F-sodium fluoride (NaF), [^99mTc]Tc-methylene diphosphonate (MDP), and [^188Re]Re-IBA at the first, second, and fifth days, respectively, for bone imaging. […]/computed tomography (PET/CT) acquisition equipment was SIEMENS InveonTM. Single-photon emission computed tomography/computed tomography (SPECT/CT) acquisition equipment was GE SPECT, pinhole collimator.

Compound: CCCCCN(C)CCC1(O)P(=O)(O)[O][188Re]2([OH])([OH])([O]P1(=O)O)[O]P(=O)(O)C(O)(CCN(C)CCCCC)P(=O)(O)[O]2 (stereo not shown) [[^188Re]Re-IBA]
- PPB (plasma protein binding rate) [1]: 79.8 ± 0.71%
- %ID/g Blood ([2]; 1 h): 1.869 ± 0.665 %ID/g
- %ID/g Brain ([2]; 1 h): 0.072 ± 0.023 %ID/g
- %ID/g Femur ([2]; 1 h): 5.989 ± 1.680 %ID/g
- %ID/g Gonad ([2]; 1 h): 0.878 ± 0.426 %ID/g
- %ID/g Heart ([2]; 1 h): 0.488 ± 0.179 %ID/g
- %ID/g Kidney ([2]; 1 h): 5.894 ± 1.648 %ID/g
- %ID/g Liver ([2]; 1 h): 1.100 ± 0.165 %ID/g
- %ID/g Lung ([2]; 1 h): 1.297 ± 0.661 %ID/g
- %ID/g Muscle ([2]; 1 h): 0.550 ± 0.251 %ID/g
- %ID/g Small intestine ([2]; 1 h): 0.898 ± 0.494 %ID/g
- %ID/g Spleen ([2]; 1 h): 0.952 ± 0.336 %ID/g
- %ID/g Stomach ([2]; 1 h): 2.928 ± 0.851 %ID/g
- %ID/g Thyroid gland ([2]; 1 h): 0.594 ± 0.201 %ID/g
- Femur/heart radioactivity ratio ([2]; 1 h): 12.278
- Femur/liver radioactivity ratio ([2]; 1 h): 5.443
- Femur/muscle radioactivity ratio ([2]; 1 h): 10.880
- %ID/g Blood ([2]; 3 h): 0.785 ± 0.220 %ID/g
- %ID/g Brain ([2]; 3 h): 0.056 ± 0.010 %ID/g
- %ID/g Femur ([2]; 3 h): 7.105 ± 1.901 %ID/g
- %ID/g Gonad ([2]; 3 h): 0.611 ± 0.095 %ID/g
- %ID/g Heart ([2]; 3 h): 0.293 ± 0.118 %ID/g
- %ID/g Kidney ([2]; 3 h): 3.140 ± 0.799 %ID/g
- %ID/g Liver ([2]; 3 h): 0.794 ± 0.133 %ID/g
- %ID/g Lung ([2]; 3 h): 0.784 ± 0.196 %ID/g
- %ID/g Muscle ([2]; 3 h): 0.344 ± 0.143 %ID/g
- %ID/g Small intestine ([2]; 3 h): 0.597 ± 0.214 %ID/g
- %ID/g Spleen ([2]; 3 h): 0.475 ± 0.135 %ID/g
- %ID/g Stomach ([2]; 3 h): 2.801 ± 0.560 %ID/g
- %ID/g Thyroid gland ([2]; 3 h): 0.449 ± 0.171 %ID/g
- Femur/heart radioactivity ratio ([2]; 3 h): 24.214
- Femur/liver radioactivity ratio ([2]; 3 h): 8.949
- Femur/muscle radioactivity ratio ([2]; 3 h): 20.664
- %ID/g Blood ([2]; 6 h): 0.496 ± 0.207 %ID/g
- %ID/g Brain ([2]; 6 h): 0.045 ± 0.011 %ID/g
- %ID/g Femur ([2]; 6 h): 7.724 ± 2.292 %ID/g
- %ID/g Gonad ([2]; 6 h): 0.303 ± 0.141 %ID/g
- %ID/g Heart ([2]; 6 h): 0.199 ± 0.049 %ID/g
- %ID/g Kidney ([2]; 6 h): 2.763 ± 0.731 %ID/g
- %ID/g Liver ([2]; 6 h): 0.526 ± 0.087 %ID/g
- %ID/g Lung ([2]; 6 h): 0.506 ± 0.104 %ID/g
- %ID/g Muscle ([2]; 6 h): 0.220 ± 0.124 %ID/g
- %ID/g Small intestine ([2]; 6 h): 0.608 ± 0.192 %ID/g
- %ID/g Spleen ([2]; 6 h): 0.296 ± 0.108 %ID/g
- %ID/g Stomach ([2]; 6 h): 1.741 ± 0.368 %ID/g
- %ID/g Thyroid gland ([2]; 6 h): 0.399 ± 0.082 %ID/g
- Femur/heart radioactivity ratio ([2]; 6 h): 38.835
- Femur/liver radioactivity ratio ([2]; 6 h): 14.694
- Femur/muscle radioactivity ratio ([2]; 6 h): 35.182
- %ID/g Blood ([2]; 24 h): 0.058 ± 0.013 %ID/g
- %ID/g Brain ([2]; 24 h): 0.024 ± 0.013 %ID/g
- %ID/g Femur ([2]; 24 h): 6.177 ± 2.163 %ID/g
- %ID/g Gonad ([2]; 24 h): 0.059 ± 0.032 %ID/g
- %ID/g Heart ([2]; 24 h): 0.045 ± 0.012 %ID/g
- %ID/g Kidney ([2]; 24 h): 0.913 ± 0.173 %ID/g
- %ID/g Liver ([2]; 24 h): 0.122 ± 0.042 %ID/g
- %ID/g Lung ([2]; 24 h): 0.138 ± 0.037 %ID/g
- %ID/g Muscle ([2]; 24 h): 0.051 ± 0.020 %ID/g
- %ID/g Small intestine ([2]; 24 h): 0.078 ± 0.013 %ID/g
- %ID/g Spleen ([2]; 24 h): 0.189 ± 0.052 %ID/g
- %ID/g Stomach ([2]; 24 h): 0.098 ± 0.036 %ID/g
- %ID/g Thyroid gland ([2]; 24 h): 0.115 ± 0.036 %ID/g
- Femur/heart radioactivity ratio ([2]; 24 h): 137.083
- Femur/liver radioactivity ratio ([2]; 24 h): 50.645
- Femur/muscle radioactivity ratio ([2]; 24 h): 121.910
- %ID/g Blood ([2]; 48 h): 0.031 ± 0.009 %ID/g
- %ID/g Brain ([2]; 48 h): 0.009 ± 0.002 %ID/g
- %ID/g Femur ([2]; 48 h): 5.239 ± 2.029 %ID/g
- %ID/g Gonad ([2]; 48 h): 0.029 ± 0.009 %ID/g
- %ID/g Heart ([2]; 48 h): 0.019 ± 0.010 %ID/g
- %ID/g Kidney ([2]; 48 h): 0.399 ± 0.153 %ID/g
- %ID/g Liver ([2]; 48 h): 0.038 ± 0.020 %ID/g
- %ID/g Lung ([2]; 48 h): 0.040 ± 0.020 %ID/g
- %ID/g Muscle ([2]; 48 h): 0.016 ± 0.005 %ID/g
- %ID/g Small intestine ([2]; 48 h): 0.033 ± 0.010 %ID/g
- %ID/g Spleen ([2]; 48 h): 0.046 ± 0.009 %ID/g
- %ID/g Stomach ([2]; 48 h): 0.047 ± 0.019 %ID/g
- %ID/g Thyroid gland ([2]; 48 h): 0.070 ± 0.019 %ID/g
- Femur/heart radioactivity ratio ([2]; 48 h): 270.814
- Femur/liver radioactivity ratio ([2]; 48 h): 136.914
- Femur/muscle radioactivity ratio ([2]; 48 h): 325.483
- Bone imaging, uptake in the model side vs control side ([3]; 1–3 h after injection, concentration mainly in surrounding soft tissue): higher than that of the control side
- ROI ratio of model bone/contralateral bone (mean) ([3]; 6 h): 1.245
- ROI ratio of model bone/contralateral bone (mean) ([3]; 16 h): 1.633
- ROI ratio of model bone/contralateral bone (mean) ([3]; 32 h): 1.529
